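Interpolation was linear, between the two tested concentrations surrounding the appropriate level; five concentrations were tested over 48 hours in 96-well plates. GI50 is the concentration that inhibits growth by half.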 The source made the active and inactive calls. No stated cut-off is given here; in the data, active = GI50 up to about 1.1 µM and inactive = higher.
Experiments:
Assay in all cases: NCI anticancer screen, dose series, 48 h
DMS-273 = system: DMS-273
XF498 = system: XF498
SNB-78 = system: SNB-78
RXF 631 = system: RXF 631
KM-20L2 = system: KM-20L2
DMS-114 = system: DMS-114
HOP-18 = system: HOP-18
M19-MEL = system: M19-MEL
DLD-1 = system: DLD-1

Measured: GI50

COC(=O)C(Cc1nc2ccc(Cl)cc2nc1O)/C(=N/NC(N)=O)C(=O)Nc1ccc(Cl)cc1 (centres undefined)
inactive: DMS-273 > 100 µM | XF498 > 100 µM | SNB-78 > 100 µM | RXF 631 > 100 µM | KM-20L2 > 100 µM | DMS-114 > 100 µM | HOP-18 > 100 µM | M19-MEL > 100 µM

CC1C[C@@H]2C(=O)NC(=O)[C@@H]2c2c1c1ccccc1n2C (some centres undefined)
inactive: DMS-273 > 100 µM | XF498 > 100 µM | SNB-78 > 100 µM | RXF 631 > 100 µM | DLD-1 > 100 µM | KM-20L2 > 100 µM | DMS-114 > 100 µM | M19-MEL > 100 µM

Cc1cccc(C(C)C)c1N1C(=O)C(=O)C(c2nc3ccccc3o2)C(=O)C1=O
inactive: DMS-273 93.8 µM | XF498 21.1 µM | SNB-78 > 100 µM | RXF 631 27.2 µM | DLD-1 39.4 µM | KM-20L2 35.4 µM | DMS-114 24.7 µM | HOP-18 > 100 µM | M19-MEL 55.3 µM

CCOC(=O)[C@H]1Nc2ccccc2C2c3ccccc3CC21 (some centres undefined)
inactive: DMS-273 74 µM | XF498 > 100 µM | SNB-78 > 100 µM | RXF 631 > 100 µM | DLD-1 51.4 µM | KM-20L2 39.4 µM | DMS-114 88.1 µM | M19-MEL 74.3 µM

COC(=O)CCC(NC(=S)N/N=C/c1ccccn1)C(=O)OC (centres undefined)
inactive: XF498 > 100 µM | SNB-78 > 100 µM | RXF 631 > 100 µM | DLD-1 > 100 µM | KM-20L2 > 100 µM | DMS-114 > 100 µM | HOP-18 > 100 µM | M19-MEL > 100 µM

COC1C(CN[N+](=O)CC2OC3OC(C)(C)OC3C2OC)OC2OC(C)(C)OC21 (centres undefined)
inactive: DMS-273 > 100 µM | SNB-78 > 100 µM | RXF 631 > 100 µM | DLD-1 > 100 µM | DMS-114 > 100 µM | HOP-18 > 100 µM | M19-MEL > 100 µM

Cc1nc(C(N)=S)sc1C(=O)CC(=O)C(=O)Nc1ccccc1[N+](=O)[O-]
inactive: DMS-273 > 100 µM | SNB-78 > 100 µM | RXF 631 > 100 µM | DLD-1 > 100 µM | KM-20L2 > 100 µM | DMS-114 > 100 µM | HOP-18 > 100 µM | M19-MEL > 100 µM

COc1cc2c(cc1OC)C(=O)Cc1ccc(OC)c(OC)c1CN(C)CC2
inactive: DMS-273 > 100 µM | XF498 24.5 µM | SNB-78 > 100 µM | RXF 631 > 100 µM | DLD-1 > 100 µM | KM-20L2 > 100 µM | DMS-114 > 100 µM | HOP-18 32.4 µM | M19-MEL > 100 µM

CCC(=O)OCOc1ccc(/C=C2\CCC(CN(C)C)C2=O)cc1 (centres undefined)
inactive: DMS-273 3.97 µM | XF498 2.14 µM | SNB-78 9.68 µM | RXF 631 8.34 µM | DLD-1 2.19 µM | KM-20L2 13.1 µM | DMS-114 18.3 µM | HOP-18 15.4 µM | M19-MEL 4.47 µM

NC(CCCC(N)P(=O)(O)O)P(=O)(O)O (centres undefined)
inactive: DMS-273 > 100 µM | SNB-78 > 100 µM | RXF 631 > 100 µM | DLD-1 > 100 µM | DMS-114 > 100 µM | HOP-18 > 100 µM | M19-MEL > 100 µM

CN1c2ccccc2N(C)C2C1N(C)c1ccccc1N2C (centres undefined)
inactive: DMS-273 8.75 µM | XF498 7 µM | SNB-78 18.9 µM | RXF 631 37.1 µM | DLD-1 14.1 µM | KM-20L2 15.7 µM | DMS-114 5.71 µM | M19-MEL 6.84 µM

COc1cc2c(cc1O)[C@H](C)C(c1ccc(Cl)cc1)O2 (some centres undefined)
inactive: DMS-273 16.5 µM | XF498 15.5 µM | SNB-78 21.3 µM | RXF 631 26 µM | DLD-1 24.8 µM | KM-20L2 23.1 µM | DMS-114 13.9 µM | HOP-18 36.2 µM | M19-MEL 15.8 µM

COC(=O)c1ccc(CS(=O)(=O)c2ccccc2)cc1
inactive: DMS-273 45.4 µM | XF498 > 100 µM | SNB-78 > 100 µM | RXF 631 > 100 µM | DLD-1 91.8 µM | KM-20L2 61.5 µM | DMS-114 64.3 µM | HOP-18 > 100 µM | M19-MEL 45.4 µM

CC(C)(CN1CCCCC1)C(=O)/C=C/c1ccc(Cl)c(Cl)c1
inactive: DMS-273 1.69 µM | SNB-78 1.51 µM | RXF 631 1.72 µM | DLD-1 1.67 µM | DMS-114 1.56 µM | HOP-18 1.52 µM | M19-MEL 1.63 µM

Reference: ChEMBL document CHEMBL1201862, “PubChem BioAssay data set” (2004)
